Laboratory results: patent publication US7304052B2, “Substituted homopiperidinyl benzimidazole analogues as fundic relaxants” (Janssen Pharmaceuitca N.V., priority 1999, dated 2007)

What follows are compounds tested on gastric tone (fundus of the stomach) (assay: Gastric tone measured by an electronic barostat in conscious dogs). Details: mean maximal change in intragastric volume on relaxation of the fundus, 1 hour after S.C. administration, 0.63 mg/kg, conscious female beagle dogs, barostat at 2 mmHg.
Assay type: in vivo, dog
Description: Gastric tone cannot be measured by manometric methods. Therefore an electronic barostat was used. This allows the study of the physiological pattern and regulation of gastric tone in conscious dogs and the influence of test-compounds on this tone.
The barostat consists of an air injection system which is connected by a double-lumen 14-French polyvinyl tube to an ultrathin flaccid polyethylene bag (maximal volume: ±700 ml). Variations in gastric tone were measured by recording changes in the volume of air within an intragastric bag, maintained at a constant pressure. The barostat maintains a constant pressure (preselected) within a flaccid air-filled bag introduced into the stomach, changing the volume of air within the bag by an electronic feedback system.
Thus, the barostat measures gastric motor activity (contraction or relaxation) as changes in intragastric volume (decrease or increase resp.) at a constant intragastric pressure. The barostat consists of a strain gauge linked by an electronic relay to an air injection-aspiration system Both the strain gauge and the injection system are connected by means of double-lumen polyvinyl tube to an ultrathin polyethylene bag. A dial in the barostat allows selection of the pressure level to be maintained within the intragastric bag.
Female beagle dogs, weighing 7-17 kg, were trained to stand quietly in Pavlov frames. They were implanted with a gastric cannula under general anaesthesia and aseptic precautions. After a median laparotomy, an incision was made through the gastric wall in longitudinal direction between the greater and the lesser curve, 2 cm above the nerves of Latarjet. The cannula was secured to the gastric wall by means of a double purse string suture and brought out via a stub wound at the left quadrant of the hypochondrium Dogs were allowed a recovery period of two weeks.
At the beginning of the experiment, the cannula was opened in order to remove any gastric juice or food remnants. If necessary, the stomach was cleansed with 40 to 50 ml lukewarm water. […]
For `c1ccc(CN2CCCC(c3nc4ncccc4[nH]3)CC2)cc1` (racemic) [Compound 69, (±)-2-[hexahydro-1-(phenylmethyl)-1H-azepin-4-yl]-1H-imidazo[4,5-b]pyridine], the “Maximum change in volume (mean)” value was 87 mL.
For `c1ccc(CN2CCCC(c3nc4ncccc4[nH]3)CC2)cc1` (single isomer, unassigned; (+)) [Compound 81, (+)-2-[hexahydro-1-(phenylmethyl)-1H-azepin-4-yl]-1H-imidazo[4,5-b]pyridine], the “Maximum change in volume (mean)” value was 183 mL.
In the case of `c1ccc(CN2CCCC(c3nc4ncccc4[nH]3)CC2)cc1` (single isomer, unassigned; (-)) [Compound 80, (−)-2-[hexahydro-1-(phenylmethyl)-1H-azepin-4-yl]-1H-imidazo[4,5-b]pyridine], the “Maximum change in volume (mean)” value is reported as 55 mL.
